In paper PMC10313921, “A living ex vivo platform for functional, personalized brain cancer diagnosis” (Cell Reports Medicine, 2023):

Experiments:
Assay type in all cases: cell-based
[1] = test system: MG-I patient tumor tissue (WHO I meningioma); test: Drug screening of uncultured patient tumor tissue MG-I on OBSCs; conditions: Homo sapiens, dose required to kill 90% of the tumor
Experimental: (§1) Tumor cells were seeded onto OBSCs 2h after slicing as described above. One day after tumor seeding, six concentrations of each drug were diluted in the media underneath each culture insert, or XRad was applied using an X-Rad 320 Precision X-ray machine (n = 4 tumor foci per concentration; n ≥ 24 tumor foci per drug per cell line). Three days after treatment, the bioluminescence of live tumor cells was measured using an AMI optical imager (Spectral Instruments) and dose-response curves were generated. Tumor survival was normalized to day one tumor fluorescence and compared to an untreated control group.
(§2) To engraft onto OBSCs, the cryopreserved/thawed or fresh brain tumor tissue was filtered through a 100 μm cell strainer. […] The viability of the patient tissue was measured by an AMI optical imaging system with the addition of 1.5 mg/mL luciferin underneath the culture insert. […]
(§3) For DSS parameters 1–6, therapeutic windows were calculated by comparing OBSC toxicity and tumor response at the doses where tumor kill passed through the DSS parameter (Table S1 and S3). For DSS parameter 7, the therapeutic window was calculated by comparing the slopes through the tumor EC50 and the OBSC tox EC50. For DSS parameter 8, the therapeutic window was calculated by comparing the areas under tumor kill and OBSC tox curves. […]

[2] = test system: SE-I patient tumor tissue (WHO I subependymoma); test: Drug screening of uncultured patient tumor tissue SE-I on OBSCs; conditions: Homo sapiens; for EC90: dose required to kill 90% of the tumor
Experimental: as §1
(§4) To engraft onto OBSCs, the cryopreserved/thawed or fresh brain tumor tissue was filtered through a 100 μm cell strainer. Each 50 mg of tissue was transfected with 1mL mcherry-FLuc Lentivirus at 1.5e7 vg/ml with 1μL polybrene for 4h at 37°C. After incubation, the brain tumor tissue was washed with PBS three times to remove the residual virus and reconstituted in PBS with a final volume of 150 μL. […] The viability of the patient tissue was measured by an AMI optical imaging system with the addition of 1.5 mg/mL luciferin underneath the culture insert. […]
(§5) For DSS parameters 1–6, therapeutic windows were calculated by comparing OBSC toxicity and tumor response at the doses where tumor kill passed through the DSS parameter (Table S1 and S3). For DSS parameter 7, the therapeutic window was calculated by comparing the slopes through the tumor EC50 and the OBSC tox EC50. For DSS parameter 8, the therapeutic window was calculated by comparing the areas under tumor kill and OBSC tox curves. Normalized therapeutic window ratios for DSS parameters 1–8 within each drug-tumor-OBSC interaction were calculated in the following manner: within each window, values ranged from +1 to −1, where values approaching +1 signify increasing tumor kill relative to normal tissue toxicity, and values approaching −1 indicate agents where tumors remained highly viable while toxicity to the normal OBSC tissue was elevated. […]

[3] = test system: MG-II patient tumor tissue (WHO grade II meningioma); test: Drug screening of uncultured patient tumor tissue MG-II on OBSCs; conditions: Homo sapiens; for EC90: dose required to kill 90% of the tumor
Experimental: as §1
To engraft onto OBSCs, the cryopreserved/thawed or fresh brain tumor tissue was filtered through a 100 μm cell strainer. Each 50 mg of tissue was transfected with 1mL mcherry-FLuc Lentivirus at 1.5e7 vg/ml with 1μL polybrene for 4h at 37°C. After incubation, the brain tumor tissue was washed with PBS three times to remove the residual virus and reconstituted in PBS with a final volume of 150 μL. Then the tissue solution was engrafted atop OBSCs at ∼0.5 mg tissue in 3 μL of PBS on each hemisphere of the slice. The OBSC engrafted with patient tumor tissue was incubated at 37°C with 5% CO2 and 95% humidity. The BSM was changed after 24h and subsequently every 3 days. Tumor treatment studies were executed as described above for tumor lines. The viability of the patient tissue was measured by an AMI optical imaging system with the addition of 1.5 mg/mL luciferin underneath the culture insert.
Several weighted parameters were factored into an overall drug sensitivity score.
For DSS parameters 1–6, therapeutic windows were calculated by comparing OBSC toxicity and tumor response at the doses where tumor kill passed through the DSS parameter (Table S1 and S3). For DSS parameter 7, the therapeutic window was calculated by comparing the slopes through the tumor EC50 and the OBSC tox EC50. For DSS parameter 8, the therapeutic window was calculated by comparing the areas under tumor kill and OBSC tox curves. Normalized therapeutic window ratios for DSS parameters 1–8 within each drug-tumor-OBSC interaction were calculated in the following manner: within each window, values ranged from +1 to −1, where values approaching +1 signify increasing tumor kill relative to normal tissue toxicity, and values approaching −1 indicate agents where tumors remained highly viable while toxicity to the normal OBSC tissue was elevated. DSS parameters 9–11 were determined based on the behavior of the tumor in response to the drug, as defined above.
All individually weighed parameters were added together to generate the DSS. Overall DSS from 0 to 100 signify increasing efficacy in tumor kill relative to OBSC toxicity, while scores from 0 to −100 describe scenarios in which tumors thrive more effectively than OBSCs for a given treatment. Dose-response values were calculated via linear interpolation of raw data, not from best-fit curve equations.

[4] = test system: MMG-II patient tumor tissue (WHO grade II meningioma, multiple tumors); test: Drug screening of uncultured patient tumor tissue MMG-II on OBSCs; conditions: Homo sapiens, dose required to kill 90% of the tumor
Experimental: as §1, §4, §5

[5] = test system: LBM patient tumor tissue (Stage III NSCLC adenocarcinoma); test: Drug screening of uncultured patient tumor tissue LBM on OBSCs; conditions: Homo sapiens; for EC90: dose required to kill 90% of the tumor
Experimental: as §1, §4, §5

[6] = test system: GBM-MG patient tumor tissue (GBM w/ WHO I meningioma); test: Drug screening of uncultured patient tumor tissue GBM-MG on OBSCs; conditions: Homo sapiens, dose required to kill 90% of the tumor
Experimental: as §1, §2, §3

[7] = test system: ODDG patient tumor tissue (WHO grade III oligodendroglioma); test: Drug screening of uncultured patient tumor tissue ODDG on OBSCs; conditions: Homo sapiens
Experimental: as §1, §2, §3

[8] = dose required to kill 50% of the tumor

Row | Structure (SMILES) | EC90 [1] [µM] | EC90 [2] [µM] | EC90 [3] [µM] | EC90 [4] [µM] | EC90 [5] [µM] | other results
1 | Nc1ncn([C@@H]2O[C@H](CO)[C@@H](O)[C@H]2O)c(=O)n1 [Azacitidine] | > 10 | > 10 | – | – | – | –
2 | Nc1ccn([C@@H]2O[C@H](CO)[C@@H](O)C2(F)F)c(=O)n1 [Gemcitabine] | – | – | > 10 | > 10 | – | –
3 | O=NN(CCCl)C(=O)NC1CCCCC1 [Lomustine] | – | – | – | – | > 10 | –
4 | Cn1nnc2c(C(N)=O)ncn2c1=O [Temozolomide] | > 10 | > 10 | > 10 | – | > 10 | EC90 [6]: > 10 µM; EC50 [7, 8]: > 100 µM; EC90 ([7]; dose required to kill 90% of the tumor): > 10 µM; EC50 [2, 8]: > 100 µM; EC50 [3, 8]: > 100 µM; EC50 [5, 8]: > 100 µM
5 | CC(=O)Nc1cccc(-n2c(=O)n(C3CC3)c(=O)c3c(Nc4ccc(I)cc4F)n(C)c(=O)c(C)c32)c1 [Trametinib] | – | – | > 10 | > 10 | – | –
6 | CC[C@]1(O)C[C@H]2CN(CCc3c([nH]c4ccccc34)[C@@](C(=O)OC)(c3cc4c(cc3OC)N(C=O)[C@H]3[C@@](O)(C(=O)OC)[C@H](OC(C)=O)[C@]5(CC)C=CCN6CC[C@]43[C@@H]65)C2)C1 [Vincristine] | – | – | > 10 | > 10 | – | –
